Holding throughout (type): biochemical
One test addresses ABL1 (Homo sapiens, UniProt P00519). Description: IC50 inhibitory activity against ABL1 kinase. The method, then: (§1) IC50 values were calculated by measuring the inhibitory activity against LCK, c-Src, p38a/MAPK14, ABL1, DDR1 and FGR kinases of the compounds of the present invention.
The next test has as its target p38a/MAPK14 (Homo sapiens, UniProt Q16539). The test is described as follows: IC50 inhibitory activity against p38a/MAPK14 kinase. On the procedure: as §1
In the next test the target is c-Src (Homo sapiens, UniProt P12931). The test is described as follows: IC50 inhibitory activity against c-Src kinase. The method, then:
as §1

A further test deals with ABL1 (T315I) (Homo sapiens, UniProt P00519, T315I). The test is described as follows: IC50 inhibitory activity against ABL1 (T315I) kinase. The method, then: as §1
For the next test, the target named is LCK (Homo sapiens, UniProt P06239). The test is described as follows: IC50 inhibitory activity against LCK kinase. The method, then: as §1
The next test concerns the target LYN (Homo sapiens, UniProt P07948). The test is described as follows: IC50 inhibitory activity against LYN kinase.

Read-outs that look alike come from different tables or passages of the source. Square brackets hold non-standard residues; d marks the D form. Peptide text beside a SMILES is read from it. * marks the point of attachment. X1 = Cc1ccc(Nc2ncc3c(n2)N(C)C(=O)N(c2cc(C(=O)*)ccc2C)C3)cn1; Aib = CC(C)(N)C(=O)O

This is an account of results in patent US11530221B2, “Pyrimido[4,5-d]pyrimidin-2-one derivatives as protein kinase inhibitors” (KOREA INSTITUTE OF SCIENCE AND TECHNOLOGY, priority 2019, dated 2022).

Chain of LCK (P06239 whole entry): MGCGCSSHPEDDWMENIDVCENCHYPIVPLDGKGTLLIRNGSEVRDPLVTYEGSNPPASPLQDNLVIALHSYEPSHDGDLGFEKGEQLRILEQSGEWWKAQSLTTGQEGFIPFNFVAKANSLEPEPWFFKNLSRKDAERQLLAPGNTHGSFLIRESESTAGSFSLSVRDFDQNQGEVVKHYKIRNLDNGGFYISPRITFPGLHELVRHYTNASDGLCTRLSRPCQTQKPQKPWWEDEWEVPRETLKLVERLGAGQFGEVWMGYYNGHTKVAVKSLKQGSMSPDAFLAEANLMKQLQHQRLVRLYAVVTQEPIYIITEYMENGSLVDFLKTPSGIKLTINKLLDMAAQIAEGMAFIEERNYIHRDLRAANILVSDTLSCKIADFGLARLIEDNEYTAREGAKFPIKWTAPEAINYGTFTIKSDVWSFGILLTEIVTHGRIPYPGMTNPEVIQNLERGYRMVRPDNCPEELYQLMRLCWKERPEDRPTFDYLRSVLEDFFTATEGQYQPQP
Chain of p38a/MAPK14 (Q16539 whole entry): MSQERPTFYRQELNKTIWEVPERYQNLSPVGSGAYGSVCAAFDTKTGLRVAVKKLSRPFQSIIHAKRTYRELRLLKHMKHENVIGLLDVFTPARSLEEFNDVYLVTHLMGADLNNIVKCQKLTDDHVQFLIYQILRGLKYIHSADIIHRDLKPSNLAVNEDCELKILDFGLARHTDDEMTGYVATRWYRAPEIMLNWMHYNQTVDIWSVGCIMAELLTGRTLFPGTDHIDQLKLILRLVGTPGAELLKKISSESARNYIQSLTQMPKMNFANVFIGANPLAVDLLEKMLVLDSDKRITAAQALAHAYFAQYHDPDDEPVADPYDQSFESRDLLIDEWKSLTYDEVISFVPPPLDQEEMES
Chain of c-Src (P12931 whole entry): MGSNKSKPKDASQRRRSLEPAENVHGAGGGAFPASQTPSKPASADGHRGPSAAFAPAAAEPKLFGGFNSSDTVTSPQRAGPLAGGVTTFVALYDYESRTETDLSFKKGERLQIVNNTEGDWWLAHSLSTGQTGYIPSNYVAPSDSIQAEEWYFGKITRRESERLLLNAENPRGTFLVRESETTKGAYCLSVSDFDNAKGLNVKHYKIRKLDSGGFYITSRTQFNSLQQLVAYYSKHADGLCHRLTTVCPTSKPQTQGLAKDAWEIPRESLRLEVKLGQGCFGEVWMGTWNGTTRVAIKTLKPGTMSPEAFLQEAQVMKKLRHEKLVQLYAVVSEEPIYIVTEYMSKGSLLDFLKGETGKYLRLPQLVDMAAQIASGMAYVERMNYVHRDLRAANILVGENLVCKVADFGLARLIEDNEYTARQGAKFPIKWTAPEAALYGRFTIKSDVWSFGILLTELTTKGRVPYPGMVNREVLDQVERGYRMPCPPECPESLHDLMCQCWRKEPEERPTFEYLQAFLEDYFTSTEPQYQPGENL
Chain of LYN (P07948 whole entry): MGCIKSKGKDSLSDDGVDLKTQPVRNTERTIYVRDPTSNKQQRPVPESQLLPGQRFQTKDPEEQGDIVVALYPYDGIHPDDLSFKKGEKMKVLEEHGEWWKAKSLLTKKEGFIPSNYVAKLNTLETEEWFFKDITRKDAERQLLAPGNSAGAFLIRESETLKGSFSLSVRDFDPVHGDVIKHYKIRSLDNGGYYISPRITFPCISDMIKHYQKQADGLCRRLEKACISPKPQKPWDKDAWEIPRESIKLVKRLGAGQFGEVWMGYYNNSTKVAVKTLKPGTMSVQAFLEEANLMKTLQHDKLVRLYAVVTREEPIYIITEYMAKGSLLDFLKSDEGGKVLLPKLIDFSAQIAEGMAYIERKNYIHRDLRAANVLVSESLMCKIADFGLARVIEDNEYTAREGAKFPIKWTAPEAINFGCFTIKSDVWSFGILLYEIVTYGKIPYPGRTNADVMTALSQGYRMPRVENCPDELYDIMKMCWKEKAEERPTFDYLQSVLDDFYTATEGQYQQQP

As to `Cc1ccc(Nc2ncc3c(n2)N(C)C(=O)N(c2cc(C(=O)N[C@H](C(=O)N4CCC[C@@H]4C(=O)NC(C)(C)C(=O)N[C@@H](CC(C)C)C(=O)N(C)C)C(C)C)ccc2C)C3)cn1` [Example 2, (R)—N-(1-(((S)-1-(dimethylamino)-4-methyl-1-oxopentan-2-yl)amino)-2-methyl-1-oxopropan-2-yl)-1-((4-methyl-3-(1-methyl-7-((6-methylpyridin-3-yl)amino)-2-oxo-1,4-dihydropyrimido[4,5-d]pyrimidin-3(2H)-yl)benzoyl)-L-valyl)pyrrolidine-2-carboxamide] (X1-V[dP][Aib]L-NMe2), the IC50 on ABL1 was 200 to 400 nM; against p38a/MAPK14, greater than 600 nM; at c-Src it was 200 to 400 nM; on ABL1 (T315I), greater than 600 nM; at LCK it was 1 to 200 nM.
Regarding `Cc1ccc(Nc2ncc3c(n2)N(C)C(=O)N(c2cc(NC(=O)c4ccc5c(c4)NC(=O)[C@H](Cc4ccccc4)N=C5c4ccccc4)ccc2C)C3)cn1` [Example 26, (S)-3-benzyl-N-(4-methyl-3-(1-methyl-7-((6-methylpyridin-3-yl)amino)-2-oxo-1,4-dihydropyrimido[4,5-d]pyrimidin-3(2H)-yl)phenyl)-2-oxo-5-phenyl-2,3-dihydro-1H-benzo[e][1,4]diazepine-8-carboxamide], the IC50 was 1 to 200 nM on ABL1 (read-out: ABL1 IC50); greater than 600 nM at p38a/MAPK14 (read-out: p38a/MAPK14 IC50); 1 to 200 nM at c-Src (read-out: c-Src IC50); greater than 600 nM on ABL1 (T315I) (read-out: ABL1 (T315I) IC50); 1 to 200 nM at LCK (read-out: LCK IC50).
For the compound `Cc1ccc(Nc2ncc3c(n2)N(C)C(=O)N(c2cc(NC(=O)c4ccc5c(c4)NC(=O)[C@H](C)N=C5c4ccccc4)ccc2C)C3)cn1` [Example 30, (S)-3-methyl-N-(4-methyl-3-(1-methyl-7-((6-methylpyridin-3-yl)amino)-2-oxo-1,4-dihydropyrimido[4,5-d]pyrimidin-3(2H)-yl)phenyl)-2-oxo-5-phenyl-2,3-dihydro-1H-benzo[e][1,4]diazepine-8-carboxamide], the IC50 was 1 to 200 nM at ABL1 (read-out: ABL1 IC50); 1 to 200 nM at p38a/MAPK14 (read-out: p38a/MAPK14 IC50); 1 to 200 nM at c-Src (read-out: c-Src IC50); greater than 600 nM at ABL1 (T315I) (read-out: ABL1 (T315I) IC50); 1 to 200 nM at LCK (read-out: LCK IC50).
For the compound `CC[C@@H](C)[C@H]1N=C(c2ccccc2)c2ccc(C(=O)Nc3ccc(C)c(N4Cc5cnc(Nc6ccc(C)nc6)nc5N(C)C4=O)c3)cc2NC1=O` [Example 32, (R)-3-((R)-sec-butyl)-N-(4-methyl-3-(1-methyl-7-((6-methylpyridin-3-yl)amino)-2-oxo-1,4-dihydropyrimido[4,5-d]pyrimidin-3(2H)-yl)phenyl)-2-oxo-5-phenyl-2,3-dihydro-1H-benzo[e][1,4]diazepine-8-carboxamide], the IC50 is 1 to 200 nM at ABL1 (read-out: ABL1 IC50); 200 to 400 nM at p38a/MAPK14 (read-out: p38a/MAPK14 IC50); 1 to 200 nM at c-Src (read-out: c-Src IC50); greater than 600 nM at ABL1 (T315I) (read-out: ABL1 (T315I) IC50); 1 to 200 nM on LCK (read-out: LCK IC50).
Turning to `CC1=N[C@@H](Cc2ccccc2)C(=O)Nc2cc(C(=O)Nc3ccc(C)c(N4Cc5cnc(Nc6ccc(C)nc6)nc5N(C)C4=O)c3)ccc21` [Example 34, (S)-3-benzyl-5-methyl-N-(4-methyl-3-(1-methyl-7-((6-methylpyridin-3-yl)amino)-2-oxo-1,4-dihydropyrimido[4,5-d]pyrimidin-3(2H)-yl)phenyl)-2-oxo-2,3-dihydro-1H-benzo[e][1,4]diazepine-8-carboxamide], the IC50 on LYN, on c-Src (read-out: c-Src IC50) and at LCK (read-out: LCK IC50) was 1 to 200 nM throughout.
As to `CC1=N[C@H](Cc2ccccc2)C(=O)Nc2cc(C(=O)Nc3ccc(C)c(N4Cc5cnc(Nc6ccc(C)nc6)nc5N(C)C4=O)c3)ccc21` [Example 35, (R)-3-benzyl-5-methyl-N-(4-methyl-3-(1-methyl-7-((6-methylpyridin-3-yl)amino)-2-oxo-1,4-dihydropyrimido[4,5-d]pyrimidin-3(2H)-yl)phenyl)-2-oxo-2,3-dihydro-1H-benzo[e][1,4]diazepine-8-carboxamide], the IC50 on LYN, at c-Src (read-out: c-Src IC50) and at LCK (read-out: LCK IC50) was 1 to 200 nM throughout.
In the case of `Cc1ccc(Nc2ncc3c(n2)N(C)C(=O)N(c2cc(NC(=O)c4ccc5c(c4)N(C)C(=O)[C@H](CC(C)C)N=C5c4ccccc4)ccc2C)C3)cn1` [Example 37, (S)-3-isobutyl-1-methyl-N-(4-methyl-3-(1-methyl-7-((6-methylpyridin-3-yl)amino)-2-oxo-1,4-dihydropyrimido[4,5-d]pyrimidin-3(2H)-yl)phenyl)-2-oxo-5-phenyl-2,3-dihydro-1H-benzo[e][1,4]diazepine-8-carboxamide], the IC50 against LYN, at c-Src (read-out: c-Src IC50) and on LCK (read-out: LCK IC50) was 1 to 200 nM throughout.
Consider `C=CCN1C(=O)[C@H](CC(C)C)N=C(c2ccccc2)c2ccc(C(=O)Nc3ccc(C)c(N4Cc5cnc(Nc6ccc(C)nc6)nc5N(C)C4=O)c3)cc21` [Example 38, (S)-1-allyl-3-isobutyl-N-(4-methyl-3-(1-methyl-7-((6-methylpyridin-3-yl)amino)-2-oxo-1,4-dihydropyrimido[4,5-d]pyrimidin-3(2H)-yl)phenyl)-2-oxo-5-phenyl-2,3-dihydro-1H-benzo[e][1,4]diazepine-8-carboxamide], for which the IC50 against LYN is 1 to 200 nM; at c-Src (read-out: c-Src IC50), 200 to 400 nM; on LCK (read-out: LCK IC50) it was 1 to 200 nM.
Take `Cc1ccc(Nc2ncc3c(n2)N(C)C(=O)N(c2cc(C(=O)N4C[C@@H](C(=O)NCc5ccccc5)[C@H](C(=O)NCc5ccc(Cl)cc5)C4)ccc2C)C3)cn1` [Example 47, (3S,4S)—N^3-benzyl-N^4-(4-chlorobenzyl)-1-(4-methyl-3-(1-methyl-7-((6-methylpyridin-3-yl)amino)-2-oxo-1,4-dihydropyrimido[4,5-d]pyrimidin-3(2H)-yl)benzoyl)pyrrolidine-3,4-dicarboxamide]: the IC50 at ABL1 (read-out: ABL1 IC50), at p38a/MAPK14 (read-out: p38a/MAPK14 IC50), at c-Src (read-out: c-Src IC50) and on LCK (read-out: LCK IC50) was 1 to 200 nM throughout.
For `Cc1ccc(Nc2ncc3c(n2)N(C)C(=O)N(c2cc(C(=O)N4C[C@@H](C(=O)NCCc5c[nH]c6ccccc56)[C@H](C(=O)NCc5ccc(Cl)cc5)C4)ccc2C)C3)cn1` [Example 48, (3S,4S)—N^3-(2-(1H-indol-3-yl)ethyl)-N^4-(4-chlorobenzyl)-1-(4-methyl-3-(1-methyl-7-((6-methylpyridin-3-yl)amino)-2-oxo-1,4-dihydropyrimido[4,5-d]pyrimidin-3(2H)-yl)benzoyl)pyrrolidine-3,4-dicarboxamide], the IC50 at ABL1 (read-out: ABL1 IC50) was in the range of 1 to 200 nM; on p38a/MAPK14 (read-out: p38a/MAPK14 IC50) it was 400 to 600 nM; on c-Src (read-out: c-Src IC50) it was 1 to 200 nM; on LCK (read-out: LCK IC50) it was 1 to 200 nM.
In the case of `Cc1ccc(Nc2ncc3c(n2)N(C)C(=O)N(c2cc(NC(=O)c4ccc([N+](=O)[O-])c(OCC(C)C)c4)ccc2C)C3)cn1` [Example 49, 3-isobutoxy-N-(4-methyl-3-(1-methyl-7-((6-methylpyridin-3-yl)amino)-2-oxo-1,4-dihydropyrimido[4,5-d]pyrimidin-3(2H)-yl)phenyl)-4-nitrobenzamide], the IC50 was 1 to 200 nM at ABL1 (read-out: ABL1 IC50), 1 to 200 nM at p38a/MAPK14 (read-out: p38a/MAPK14 IC50) and greater than 600 nM on ABL1 (T315I) (read-out: ABL1 (T315I) IC50).
With `COc1ccc(CCOc2cc(C(=O)Nc3ccc(C)c(N4Cc5cnc(Nc6ccc(C)nc6)nc5N(C)C4=O)c3)ccc2[N+](=O)[O-])cc1` [Example 51, 3-(4-methoxyphenethoxy)-N-(4-methyl-3-(1-methyl-7-((6-methylpyridin-3-yl)amino)-2-oxo-1,4-dihydropyrimido[4,5-d]pyrimidin-3(2H)-yl)phenyl)-4-nitrobenzamide], the IC50 at ABL1 (read-out: ABL1 IC50), on p38a/MAPK14 (read-out: p38a/MAPK14 IC50) and on LCK (read-out: LCK IC50) was 1 to 200 nM in each case.
As for `Cc1ccc(Nc2ncc3c(n2)N(C)C(=O)N(c2cc(NC(=O)CNC(=O)c4ccc([N+](=O)[O-])c(OCC(C)C)c4)ccc2C)C3)cn1` [Example 52, 3-isobutoxy-N-(2-((4-methyl-3-(1-methyl-7-((6-methylpyridin-3-yl)amino)-2-oxo-1,4-dihydropyrimido[4,5-d]pyrimidin-3(2H)-yl)phenyl)amino)-2-oxoethyl)-4-nitrobenzamide], the IC50 is 1 to 200 nM on ABL1 (read-out: ABL1 IC50), 400 to 600 nM on p38a/MAPK14 (read-out: p38a/MAPK14 IC50) and greater than 600 nM on ABL1 (T315I) (read-out: ABL1 (T315I) IC50).
The matching figures for `Cc1ccc(Nc2ncc3c(n2)N(C)C(=O)N(c2cc(NC(=O)[C@H](CC(C)C)NC(=O)c4ccc([N+](=O)[O-])c(OCC(C)C)c4)ccc2C)C3)cn1` [Example 54, (S)-3-isobutoxy-N-(4-methyl-1-((4-methyl-3-(1-methyl-7-((6-methylpyridin-3-yl)amino)-2-oxo-1,4-dihydropyrimido[4,5-d]pyrimidin-3(2H)-yl)phenyl)amino)-1-oxopentan-2-yl)-4-nitrobenzamide]: 1 to 200 nM, greater than 600 nM and greater than 600 nM.
Consider `COc1ccc(CCOc2cc(C(=O)N[C@@H](C)C(=O)Nc3ccc(C)c(N4Cc5cnc(Nc6ccc(C)nc6)nc5N(C)C4=O)c3)ccc2[N+](=O)[O-])cc1` [Example 56], for which the IC50 is 1 to 200 nM at ABL1 (read-out: ABL1 IC50) and greater than 600 nM at p38a/MAPK14 (read-out: p38a/MAPK14 IC50).
Consider `Cc1ccc(Nc2ncc3c(n2)N(C)C(=O)N(c2cc(NC(=O)[C@@H]4CN(C(=O)OCC(Cl)(Cl)Cl)C[C@H]4C(=O)NCc4ccc(Cl)cc4)ccc2C)C3)cn1` [Example 57, 2,2,2-trichloroethyl (3S,4S)-3-((4-chlorobenzyl)carbamoyl)-4-((4-methyl-3-(1-methyl-7-((6-methylpyridin-3-yl)amino)-2-oxo-1,4-dihydropyrimido[4,5-d]pyrimidin-3(2H)-yl)phenyl)carbamoyl)pyrrolidine-1-carboxylate], for which the IC50 at ABL1 (read-out: ABL1 IC50), at p38a/MAPK14 (read-out: p38a/MAPK14 IC50), at c-Src (read-out: c-Src IC50) and on LCK (read-out: LCK IC50) was 1 to 200 nM in each case.
